# Experimental data reported in US20060167084A1, “Delta-9-THC compositions and methods for treating symptoms associated with multiple sclerosis” (Unimed Pharmaceuticals, Inc., priority 2003, published 2006).
# Legend:
# [1] = test system: patients with multiple sclerosis; test: Patient assessment of treatment benefit at visit 8; format: in vivo, human
# [2] = test system: patients with multiple sclerosis; test: Adverse events reported by patients
# [3] = test system: spasticity related to multiple sclerosis; test: Ashworth score of spasticity, randomized placebo-controlled MS study; format: in vivo, human; conditions: baseline to 13 weeks' follow-up
# [4] = test system: patients with multiple sclerosis; test: Category-rating scales of symptoms (patient reported secondary outcomes); format: in vivo, human
# [5] = test system: patients with multiple sclerosis; test: Timed 10 meter walk; format: in vivo, human; conditions: baseline to follow-up (visit 7)
compound,measurement,setting,value
"CCCCCc1cc(O)c2c(c1)OC(C)(C)[C@@H]1CCC(C)=C[C@@H]21 [delta-9-THC, (6aR-trans)-6a,7,8,10a-tetrahydro-6,6,9-trimethyl-3-pentyl-6H-dibenzo>b,d!pyran-1-ol]","Symptom improvement Bladder: No, patients","[1]; visit 8, number of patients",97
same,"Symptom improvement Bladder: Yes, patients","[1]; visit 8, number of patients",67
same,"Symptom improvement Pain: No, patients","[1]; visit 8, number of patients",64
same,"Symptom improvement Pain: Yes, patients","[1]; visit 8, number of patients",64
same,"Symptom improvement Spasticity: No, patients","[1]; visit 8, number of patients",73
same,"Symptom improvement Spasticity: Yes, patients","[1]; visit 8, number of patients",108
same,"Symptom improvement Tremor: No, patients","[1]; visit 8, number of patients",67
same,"Symptom improvement Tremor: Yes, patients","[1]; visit 8, number of patients",44
same,Symptom improvement Bladder: No,"[1]; visit 8, percent of patients",(59%)
same,Symptom improvement Bladder: Yes,"[1]; visit 8, percent of patients",(40%)
same,Symptom improvement Pain: No,"[1]; visit 8, percent of patients",(50%)
same,Symptom improvement Pain: Yes,"[1]; visit 8, percent of patients",(50%)
same,Symptom improvement Spasticity: No,"[1]; visit 8, percent of patients",(40%)
same,Symptom improvement Spasticity: Yes,"[1]; visit 8, percent of patients",(60%)
same,Symptom improvement Tremor: No,"[1]; visit 8, percent of patients",(60%)
same,Symptom improvement Tremor: Yes,"[1]; visit 8, percent of patients",(40%)
same,Incidences of MS relapse by comparison with placebo,[2]; in words,greatly reduced
same,Adverse event: Blocked/insertion of suprapubic catheter,[2]; number of events reported,0
same,Adverse event: Constipation,[2]; number of events reported,0
same,Adverse event: Grand mal seizure,[2]; number of events reported,0
same,Adverse event: MS relapse or possible relapse,[2]; number of events reported,1
same,Adverse event: Other,[2]; number of events reported,11
same,Adverse event: Pneumonia,[2]; number of events reported,2
same,Adverse event: Urinary tract infection,[2]; number of events reported,3
same,"Mean (SD) change in Ashworth score, lower-body muscle groups",[3],1.39 (5.21)
same,"Mean (SD) change in Ashworth score, upper-body muscle groups",[3],0.48 (4.70)
same,Mean (SD) change in total Ashworth score (baseline minus follow-up),[3]; all muscle groups,1.86 (7.95)
same,"Depression: Deterioration, patients",[4]; number of patients,42
same,"Depression: Improvement, patients",[4]; number of patients,36
same,"Depression: Same, patients",[4]; number of patients,47
same,"Energy: Deterioration, patients",[4]; number of patients,49
same,"Energy: Improvement, patients",[4]; number of patients,61
same,"Energy: Same, patients",[4]; number of patients,63
same,"Irritability: Deterioration, patients",[4]; number of patients,32
same,"Irritability: Improvement, patients",[4]; number of patients,37
same,"Irritability: Same, patients",[4]; number of patients,42
same,"Pain: Deterioration, patients",[4]; number of patients,22
same,"Pain: Improvement, patients",[4]; number of patients,64
same,"Pain: Same, patients",[4]; number of patients,43
same,"Shake/tremor: Deterioration, patients",[4]; number of patients,32
same,"Shake/tremor: Improvement, patients",[4]; number of patients,52
same,"Shake/tremor: Same, patients",[4]; number of patients,44
same,"Sleep: Deterioration, patients",[4]; number of patients,24
same,"Sleep: Improvement, patients",[4]; number of patients,71
same,"Sleep: Same, patients",[4]; number of patients,57
same,"Spasms: Deterioration, patients",[4]; number of patients,37
same,"Spasms: Improvement, patients",[4]; number of patients,81
same,"Spasms: Same, patients",[4]; number of patients,49
same,"Spasticity: Deterioration, patients",[4]; number of patients,47
same,"Spasticity: Improvement, patients",[4]; number of patients,89
same,"Spasticity: Same, patients",[4]; number of patients,40
same,"Tiredness: Deterioration, patients",[4]; number of patients,76
same,"Tiredness: Improvement, patients",[4]; number of patients,35
same,"Tiredness: Same, patients",[4]; number of patients,46
same,Depression: Deterioration,[4]; percent of patients,(34%)
same,Depression: Improvement,[4]; percent of patients,(29%)
same,Depression: Same,[4]; percent of patients,(38%)
same,Energy: Deterioration,[4]; percent of patients,(28%)
same,Energy: Improvement,[4]; percent of patients,(35%)
same,Energy: Same,[4]; percent of patients,(36%)
same,Irritability: Deterioration,[4]; percent of patients,(29%)
same,Irritability: Improvement,[4]; percent of patients,(33%)
same,Irritability: Same,[4]; percent of patients,(38%)
same,Pain: Deterioration,[4]; percent of patients,(17%)
same,Pain: Improvement,[4]; percent of patients,(50%)
same,Pain: Same,[4]; percent of patients,(33%)
same,Shake/tremor: Deterioration,[4]; percent of patients,(25%)
same,Shake/tremor: Improvement,[4]; percent of patients,(41%)
same,Shake/tremor: Same,[4]; percent of patients,(34%)
same,Sleep: Deterioration,[4]; percent of patients,(16%)
same,Sleep: Improvement,[4]; percent of patients,(47%)
same,Sleep: Same,[4]; percent of patients,(38%)
same,Spasms: Deterioration,[4]; percent of patients,(22%)
same,Spasms: Improvement,[4]; percent of patients,(49%)
same,Spasms: Same,[4]; percent of patients,(29%)
same,Spasticity: Deterioration,[4]; percent of patients,(27%)
same,Spasticity: Improvement,[4]; percent of patients,(51%)
same,Spasticity: Same,[4]; percent of patients,(23%)
same,Tiredness: Deterioration,[4]; percent of patients,(48%)
same,Tiredness: Improvement,[4]; percent of patients,(22%)
same,Tiredness: Same,[4]; percent of patients,(29%)
same,Reduction of median time taken to walk 10 meters,[5],12%
